# Tests used:
# [1] = Biological activity after removal of moieties of lipid X
# sheep [2] = details: cited from earlier work
# B cell = details: cited from earlier work
# C57BL/10 mice [3] = assay: Protection of mice by lipid X against lethal endotoxemia; format: in vivo, mouse
# Description: FIG. 4. […] Controls receiving no lipid X are shown at the left of each panel. The number of mice per group is either three or four, and is the sum of the dead and the living. The number of survivors is shown at the top of the panel. Each point represents the death of one mouse. When all individuals died the mean time of death is shown as a horizontal bar. […] Doses of lipid X were administered in 0.1 ml of physiological saline that had been titrated to pH 8 with Tris to dissolve the lipid.
# (§1) Experimental Animals. Eight week old mice (strain C57BL/10) were purchased from Jackson Laboratories, Bar Harbor, ME. Mixed bred sheep weighing 30-70 kg were obtained from the University of Wisconsin Experimental Farms. Sheep were prepared as follows: at least 24 hours before each experiment catheters were percutaneously placed in the pulmonary artery. Any other catheterizations that were required for infusion were done at this time. All studies were performed on awake, unrestrained sheep placed in portable stanchions with food and water ad libitum. Electronically calculated pulmonary artery pressures as well as heart rates were recorded at various intervals on a Gilson polygraph (Gilson Instruments, Middleton, WI). To ensure a stable baseline prior to the injection of test compounds, approximately 1 hour of baseline measurements were recorded.
# Mice were allowed to rest for at least 7 days following their arrival and were sexually segregated and housed at 5 per cage with food and water ad libitum. […] No more than 0.1 ml of fluid was injected at a time. Just prior to injection, the mice were lightly anesthetized with ether. Following the injection, mice were observed every 0.5-6 hours and the time of death was recorded.
# The lethal dose of E. coli endotoxin was determined both for the intravenous and of the intraperitoneal challenge.
# Mice were given 750 μg of lipid X from 24 hours prior to 6 hours after endotoxin challenge with 1-2 LD100 doses.
# sheep [4] = assay: Protection of sheep by lipid X against lethal effects of intravenous lipopolysaccharide; format: in vivo
# Description: Preparation of E. coli lipid X. The 2,3-diacylglucosamine 1-phosphate (E. coli lipid X) was isolated from E. coli strain MN7 (ATCC #39328) as described previously (9). […] Stock solutions (1-10 mg/ml) are usually prepared in aqueous 1 mM EDTA titrated to pH 8 with Tris-free base. […] In experiments involving the use of mice, solid lipid X was first dissolved in 0.9% saline (instead of water) and titrated with Tris-free base to pH 8 in the same manner.
# (§2) Stock solutions of 5 mg/ml were prepared in sterile 0.9% saline.
# as §1
# [5] = Solution behaviour of lipid X; format: physicochemical
# Description: (§3) Preparation of E. coli lipid X. The 2,3-diacylglucosamine 1-phosphate (E. coli lipid X) was isolated from E. coli strain MN7 (ATCC #39328) as described previously (9). Lipid X obtained in this manner is a solid white powder. Stock solutions (1-10 mg/ml) are usually prepared in aqueous 1 mM EDTA titrated to pH 8 with Tris-free base. Other monovalent counter ions, such as (NH4)^+, Na^+, K^+, etc., may also be used, but divalent cations such as Mg^++ and Ca^++ cause the lipid to precipitate. […] In experiments involving the use of mice, solid lipid X was first dissolved in 0.9% saline (instead of water) and titrated with Tris-free base to pH 8 in the same manner.
# C57BL/10 mice [6] = assay: Toxicity of lipid X in mice; format: in vivo, mouse
# Description: To test for the toxicity of lipid X in mice, C57BL/10 mice were challenged with 750, 2000 or 5000 μg of lipid X intraperitoneally (12 mice) or with 750, 1500 or 3000 μg intravenously (7 mice).
# sheep [7] = assay: Hemodynamic response and toxicity of lipid X in sheep; format: in vivo; details: 40 sheep injected with lipid X
# Description: The hemodynamic response of sheep to lipid X has been studied (18). Essentially, the conclusions are that: 1) lipid X (40 μg/kg cumulative dose) causes a transient (3-5 min) increase in pulmonary arterial pressure, that may be attributed to prostaglandin release, or stimulated synthesis. […] The only significant symptoms observed after injection of lipid X alone are transient lethargy and shortness of breath (15-30 min), without significant distress or obvious adverse long-term consequences.
# A period of transient pulmonary hypertension and slight short ness of breath subsides after 30 minutes. About 30 sheep were examined by Burhop with regard to lipid X toxicity.
# [8] = test system: macrophage protein kinase C; details: cited from earlier work
# [9] = Storage stability of lipid X stock solutions; format: physicochemical; details: stock solutions 5-10 mg/ml stored frozen at -20° C.
# Description: as §3
# [10] = test system: experimental tumors in guinea pigs; details: cited from earlier work
# macrophages = details: cited from earlier work
# [11] = previous work; dependent on being given prior to or very shortly after LPS challenge; cited from earlier work
# sheep [12] = assay: Lethality and clinical toxicity of intravenous lipopolysaccharide in sheep; details: usually the result of disseminated intravascular coagulopathy
# Description: as §2, §1
# [13] = lipid X by itself 40-1000 μg/kg
# [14] = sheep, pretreatment with lipid X
molecule,measurement,setting,value
CCCCCCCCCCCC(O)CC(=O)N[C@H]1[C@@H](OP(=O)(O)O)O[C@H](CO)[C@@H](O)[C@@H]1O (stereo partly drawn) [N-monoacyl glucosamine 1-phosphate],biological activity after removal of the ester linked β-hydroxymyristoyl moiety,[1]; mild alkali treatment of lipid X,biologically inert
CCCCCCCCCCCC(O)CC(=O)N[C@H]1C(O)O[C@H](CO)[C@@H](O)[C@@H]1OC(=O)CC(O)CCCCCCCCCCC (stereo partly drawn) [dephospho-X],biological activity after removal of the phosphate moiety,"[1]; mild acid treatment of lipid X, may be due to inherent solubility of dephospho-X",reduces biological activity
"CCCCCCCCCCCC(O)CC(=O)N[C@H]1[C@@H](OP(=O)(O)O)O[C@H](CO)[C@@H](O)[C@@H]1OC(=O)CC(O)CCCCCCCCCCC (stereo partly drawn) [lipid X, 2,3-diacylglucosamine 1-phosphate]",duration of transient increase in pulmonary arterial pressure,sheep [2]; lipid X 40 μg/kg cumulative dose,3 to 5 min
same,duration of pulmonary hypertension,sheep [2]; lipid X 500-1000 μg/kg intravenously,5 to 10 min
same,duration of transient lethargy and shortness of breath,sheep [2]; lipid X alone,15 to 30 min
same,marked illness or fever,sheep [2]; [13],does not create marked illness or fever
same,time for transient pulmonary hypertension and slight shortness of breath to subside,sheep [2]; [13],30 min
same,increased permeability of the pulmonary circulation,"sheep [2]; lipid X, compared to endotoxin",to a very mild degree compared to endotoxin
same,delay between injection and increase of pulmonary arterial pressure,sheep [2]; lipid X,no delay
same,life-threatening pulmonary edema,sheep [2]; lipid X,does not develop
same,terminal endotoxemia,sheep [2]; very high doses of lipid X,fails to cause terminal endotoxemia
same,B cell mitogen,B cell,B cell mitogen
same,last death after challenge,"C57BL/10 mice [3]; 750 μg lipid X intravenously, 250 or 500 μg endotoxin intravenously",≤ 5 days
same,mortality of group receiving lipid X shortly after endotoxin challenge,"C57BL/10 mice [3]; both challenge doses, versus the group on either side",higher mortality than the group on either side
same,onset and duration of protection against lipopolysaccharide,"C57BL/10 mice [3]; compared with classical tolerance, which does not appear for many days",immediate and wears off after several hours
same,survival of mice,"C57BL/10 mice [3]; lipid X (750 μg intravenously) from 1 hour prior to through 4 hours post LPS challenge, 250 μg endotoxin",81%
same,survival of mice,"C57BL/10 mice [3]; lipid X from 6 hours prior to endotoxin challenge through 1 hour after LPS challenge, intravenous, printed 500 μg lipid X",Forty-one
same,prolongation of time to death,"C57BL/10 mice [3]; lipid X intraperitoneally 2 hours before 1500 μg endotoxin (3 times LD100) intraperitoneally, data not shown",four
same,time to death,"C57BL/10 mice [3]; lipid X intraperitoneally 2 hours before 1500 μg endotoxin, about 20 hours without lipid X, data not shown",~80 h
same,resistance to the lethal effects of gram-negative endotoxin,"C57BL/10 mice [3]; mice, pretreatment with lipid X",immediately resistant to the lethal effects
same,prevention of lethal endotoxicity when given after lipopolysaccharide,"C57BL/10 mice [3]; mouse, lipid X given 4 hours after lipopolysaccharide",appears to prevent lethal endotoxicity even when given 4 hours after lipopolysaccharide
same,Survivors,"sheep [4]; lipid X 50 μg/kg 1 hour prior to endotoxin, lipopolysaccharide 20 μg/kg",1/2
same,Survivors,"sheep [4]; lipid X 100 μg/kg 15 min. prior to endotoxin, lipopolysaccharide 10 μg/kg",3/3
same,Survivors,"sheep [4]; lipid X 100 μg/kg 1 hour prior to endotoxin, lipopolysaccharide 20 μg/kg",4/4
same,Survivors,"sheep [4]; lipid X 200 μg/kg 1 hour prior to endotoxin, lipopolysaccharide 20 μg/kg",3/3
same,survival of subsequent LPS challenge,sheep [4]; sheep receiving 100-200 μg/kg lipid X during the pretreatment period,all the sheep receiving 100-200 μg/kg of lipid X during the pretreatment period survived
same,excess of lipid X over LPS required to ensure survival,"sheep [4]; sheep, on a weight basis",5-10 fold
same,effect on pulmonary hypertension or fever induced by LPS,sheep [4]; [14],does not prevent pulmonary hypertension or fever
same,"effect on serious clinical symptoms (shortness of breath, weakness, diarrhea, etc.)",sheep [4]; [14],alleviates some of the serious clinical symptoms
same,resistance to the lethal effects of gram-negative endotoxin,sheep [4]; [14],immediately resistant to the lethal effects
same,behaviour with divalent cations,[5]; Mg^++ and Ca^++,precipitate
same,solution behaviour in Tris-EDTA,"[5]; pH 8, stock solutions 1-10 mg/ml",forms a clear viscous solution
same,solubility in water,[5]; water,limited solubility
same,survival after lipid X challenge,"C57BL/10 mice [6]; 750, 2000 or 5000 μg intraperitoneally (12 mice) or 750, 1500 or 3000 μg intravenously (7 mice)",All these mice lived
same,toxicity of lipid X,C57BL/10 mice [6]; mice,nontoxic in mice
same,adverse complications of lipid X administration,sheep [7],no serious adverse complications
same,activation of macrophage protein kinase C,[8],can activate macrophage protein kinase C
same,storage stability,[9],many months without evidence of significant deterioration
same,regression of experimental tumors,[10],capable of inducing regression of experimental tumors in guinea pigs
same,macrophage activation with release of prostaglandin E2,macrophages,capable of activating macrophages with release of protaglandin E2
C=CCN1CC[C@]23c4c5ccc(O)c4O[C@H]2C(=O)CC[C@@]3(O)[C@H]1C5 [naloxone],prevention of the complications of lipopolysaccharide injection,[11],limited prevention of the complications
lipid A,time of death after injection (occasional),sheep [12],1-2 weeks
